Among the data in US11702409B2, “Pyrazolyl derivatives useful as anti-cancer agents” (NOVARTIS AG, priority 2019, dated 2023) are IC50 values, retold here.

For the assay, the target named is KRasG12C (M1-K169, biotinylated on the N-terminus) (Homo sapiens (Human), UniProt P01116, G12C). The experiment in a line: Covalent competition assay (scintillation proximity assay, competition with radiolabeled covalent probe Compound B). It is filed as binding. Conditions: in vitro KRASG12C activity; 10 nM KRasG12C:GDP, 25 nM radio-ligand and 475 nM unlabelled ligand, incubated 2 hours; read-out: Covalent Competition Assay IC50. In a few lines: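 Biotinylated KRasG12C (M1-K169):GDP incubated 2 h with agitation with serially diluted compounds premixed with a fixed concentration of radiolabeled covalent probe; scintillation proximity read-out of competition for covalent modification. Buffer 20 mM Tris-HCl pH 7.5, 150 mM NaCl, 0.1 mM MgCl2, 0.01% Tween-20. IC50 from 4-parameter fit.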
For orientation: Scintillation proximity formats need no separation of bound from free tracer.
By IC50 is commonly meant the point on the concentration scale where inhibition reaches its midpoint. On to `C=CC(=O)N1CC2(CC(n3nc(-c4ccccc4)c(-c4c(Cl)c(C)cc5[nH]nc(N)c45)c3C)C2)C1` (single isomer, unassigned) [Example 70a, 1-{6-[(4M)-4-(3-Amino-5-chloro-6-methyl-1H-indazol-4-yl)-5-methyl-3-phenyl-1H-pyrazol-1-yl]-2-azaspiro[3.3]heptan-2-yl}prop-2-en-1-one], for which the IC50 is 30 nM.
Under `C=CC(=O)N1CC2(CC(n3nc(-c4ccccc4)c(-c4c(Cl)c(C)cc5[nH]nc(N)c45)c3C)C2)C1` (single isomer, unassigned) [Example 70b, 1-(6-(4-(3-amino-5-chloro-6-methyl-1H-indazol-4-yl)-5-methyl-3-phenyl-1H-pyrazol-1-yl)-2-azaspiro[3.3]heptan-2-yl)prop-2-en-1-one] stands 2100 nM; under `C=CC(=O)N1CC2(CC(n3nc(-c4ccc5nnccc5c4)c(-c4c(Cl)c(C)cc5[nH]ncc45)c3C)C2)C1` (single isomer, unassigned) [Example 71a, 1-(6-(4-(5-chloro-6-methyl-1H-indazol-4-yl)-3-(cinnolin-6-yl)-5-methyl-1H-pyrazol-1-yl)-2-azaspiro[3.3]heptan-2-yl)prop-2-en-1-one], 101 nM.
Under `C=CC(=O)N1CC2(CC(n3nc(-c4ccc5nnccc5c4)c(-c4c(Cl)c(C)cc5[nH]ncc45)c3C)C2)C1` (single isomer, unassigned) [Example 71b, 1-(6-(4-(5-chloro-6-methyl-1H-indazol-4-yl)-3-(cinnolin-6-yl)-5-methyl-1H-pyrazol-1-yl)-2-azaspiro[3.3]heptan-2-yl)prop-2-en-1-one] stands more than 5000 nM; under `C=CC(=O)N1CC2(CC(n3nc(-c4ccc5c(c4)CS(=O)(=O)C5)c(-c4c(Cl)c(C)cc5[nH]ncc45)c3C)C2)C1` (single isomer, unassigned) [Example 72a], 306 nM.
Take `C=CC(=O)N1CC2(CC(n3nc(-c4ccc5c(c4)CS(=O)(=O)C5)c(-c4c(Cl)c(C)cc5[nH]ncc45)c3C)C2)C1` (single isomer, unassigned) [Example 72b]: the concentration for half-maximal inhibition (IC50) was 24000 nM.
With `C=CC(=O)N1CC2(CC(n3nc(C4=CN5CC(C)(C)N=C5C(F)=C4)c(-c4c(Cl)c(C)cc5[nH]ncc45)c3C)C2)C1` (single isomer, unassigned) [Example 73a] the figure was 5310 nM.
Under `C=CC(=O)N1CC2(CC(n3nc(C4=CN5CC(C)(C)N=C5C(F)=C4)c(-c4c(Cl)c(C)cc5[nH]ncc45)c3C)C2)C1` (single isomer, unassigned) [Example 73b] stands more than 50000 nM.
Consider `C=CC(=O)N1CC2(CC(n3nc(-c4c(C)cncc4C)c(-c4c(Cl)c(C)cc5[nH]ncc45)c3C)C2)C1` (single isomer, unassigned) [Example 74a], for which the concentration for half-maximal inhibition (IC50) worked out at 1550 nM.
With `C=CC(=O)N1CC2(CC(n3nc(-c4c(C)cncc4C)c(-c4c(Cl)c(C)cc5[nH]ncc45)c3C)C2)C1` (single isomer, unassigned) [Example 74b] the figure was more than 50000 nM.
With `C=CC(=O)N1CC2(CC(n3nc(-c4ccc5c(c4)CN(C)C5)c(-c4c(Cl)c(C)cc5[nH]ncc45)c3C)C2)C1` (single isomer, unassigned) [Example 75a] the figure was 251 nM; with `C=CC(=O)N1CC2(CC(n3nc(-c4ccc5c(c4)CN(C)C5)c(-c4c(Cl)c(C)cc5[nH]ncc45)c3C)C2)C1` (single isomer, unassigned) [Example 75b], more than 50000 nM; with `C=CC(=O)N1CC2(CC(n3nc(-c4ccc5nn(CCN6CC[C@H](F)C6)cc5c4)c(-c4c(Cl)c(C)cc5[nH]ncc45)c3C)C2)C1` (single isomer, unassigned) [Example 80a], 1300 nM.
With `C=CC(=O)N1CC2(CC(n3nc(-c4ccc5nn(CCN6CC[C@H](F)C6)cc5c4)c(-c4c(Cl)c(C)cc5[nH]ncc45)c3C)C2)C1` (single isomer, unassigned) [Example 80b] the figure was 8 nM; with `C=CC(=O)N1CC2(CC(n3nc(-c4ccc5nn(CCN6CC(OC)C6)cc5c4)c(-c4c(Cl)c(C)cc5[nH]ncc45)c3C)C2)C1` (single isomer, unassigned) [Example 82a], 12 nM; with `C=CC(=O)N1CC2(CC(n3nc(-c4ccc5nn(CCN6CC(OC)C6)cc5c4)c(-c4c(Cl)c(C)cc5[nH]ncc45)c3C)C2)C1` (single isomer, unassigned) [Example 82b], 712 nM.
With `C=CC(=O)N1CC2(CC(n3nc(-c4ccc5c(cnn5CCO)c4)c(-c4c(Cl)c(C)cc5[nH]ncc45)c3C)C2)C1` (single isomer, unassigned) [Example 83a, 1-(6-(4-(5-chloro-6-methyl-1H-indazol-4-yl)-3-(1-(2-hydroxyethyl)-1H-indazol-5-yl)-5-methyl-1H-pyrazol-1-yl)-2-azaspiro[3.3]heptan-2-yl)prop-2-en-1-one], the IC50 is 18 nM.
Take `C=CC(=O)N1CC2(CC(n3nc(-c4ccc5c(cnn5CCO)c4)c(-c4c(Cl)c(C)cc5[nH]ncc45)c3C)C2)C1` (single isomer, unassigned) [Example 83b, 1-(6-(4-(5-chloro-6-methyl-1H-indazol-4-yl)-3-(1-(2-hydroxyethyl)-1H-indazol-5-yl)-5-methyl-1H-pyrazol-1-yl)-2-azaspiro[3.3]heptan-2-yl)prop-2-en-1-one]: the IC50 was 4000 nM.
Under `C=CC(=O)N1CC2(CC(n3nc(-c4cccnc4C)c(-c4c(Cl)c(C)cc5[nH]ncc45)c3C(F)F)C2)C1` (single isomer, unassigned) [Example 84a, 1-(6-(4-(5-Chloro-6-methyl-1H-indazol-4-yl)-5-(difluoromethyl)-3-(2-methylpyridin-3-yl)-1H-pyrazol-1-yl)-2-azaspiro[3.3]heptan-2-yl)prop-2-en-1-one] stands 536 nM; under `C=CC(=O)N1CC2(CC(n3nc(-c4cccnc4C)c(-c4c(Cl)c(C)cc5[nH]ncc45)c3C(F)F)C2)C1` (single isomer, unassigned) [Example 84b, 1-(6-(4-(5-Chloro-6-methyl-1H-indazol-4-yl)-5-(difluoromethyl)-3-(2-methylpyridin-3-yl)-1H-pyrazol-1-yl)-2-azaspiro[3.3]heptan-2-yl)prop-2-en-1-one], more than 50000 nM.
Under `C=CC(=O)N1CC2(CC(n3nc(-c4cccnc4)c(-c4c(Cl)c(Cl)cc5[nH]ncc45)c3C(F)F)C2)C1` (single isomer, unassigned) [Example 85a] stands 335 nM; under `C=CC(=O)N1CC2(CC(n3nc(-c4cccnc4)c(-c4c(Cl)c(Cl)cc5[nH]ncc45)c3C(F)F)C2)C1` (single isomer, unassigned) [Example 85b], 21600 nM; under `C=CC(=O)N1CC2(CC(n3nc(-c4cncnc4)c(-c4c(Cl)c(Cl)cc5[nH]ncc45)c3C(F)F)C2)C1` (single isomer, unassigned) [Example 86a], 1300 nM.
With `C=CC(=O)N1CC2(CC(n3nc(-c4cncnc4)c(-c4c(Cl)c(Cl)cc5[nH]ncc45)c3C(F)F)C2)C1` (single isomer, unassigned) [Example 86b] the figure was more than 50000 nM.
Consider `C=CC(=O)N1CC2(CC(n3nc(-c4cccnc4)c(-c4c(Cl)c(C)cc5[nH]ncc45)c3C(F)F)C2)C1` (single isomer, unassigned) [Example 87a], for which the IC50 is 806 nM.
On to `C=CC(=O)N1CC2(CC(n3nc(-c4cccnc4)c(-c4c(Cl)c(C)cc5[nH]ncc45)c3C(F)F)C2)C1` (single isomer, unassigned) [Example 87b], for which the half-inhibitory concentration (IC50) is more than 50000 nM.
Turning to `C=CC(=O)N1CC2(CC(n3nc(-c4cccnc4C)c(-c4c(Cl)ccc5[nH]ncc45)c3C)C2)C1` (single isomer, unassigned) [Example 89a], the IC50 was 2300 nM.
Under `C=CC(=O)N1CC2(CC(n3nc(-c4cccnc4C)c(-c4c(Cl)ccc5[nH]ncc45)c3C)C2)C1` (single isomer, unassigned) [Example 89b] stands 25500 nM.
With `C=CC(=O)N1CC2(CC(n3nc(-c4cnc(OC)nc4)c(-c4c(Cl)ccc5[nH]ncc45)c3C)C2)C1` (single isomer, unassigned) [Example 90a] the figure was 3500 nM.
Turning to `C=CC(=O)N1CC2(CC(n3nc(-c4cnc(OC)nc4)c(-c4c(Cl)ccc5[nH]ncc45)c3C)C2)C1` (single isomer, unassigned) [Example 90b], the IC50 is more than 50000 nM.
With `C=CC(=O)N1CC2(CC(n3nc(-c4cccc(=O)n4C)c(-c4c(Cl)ccc5[nH]ncc45)c3C)C2)C1` (single isomer, unassigned) [Example 91a] the figure was 5300 nM; with `C=CC(=O)N1CC2(CC(n3nc(-c4cccc(=O)n4C)c(-c4c(Cl)ccc5[nH]ncc45)c3C)C2)C1` (single isomer, unassigned) [Example 91b], 25300 nM.
As for `C=CC(=O)N1CC2(CC(n3nc(-c4cc(C)nn4CCN(C)C)c(-c4c(Cl)c(C)cc5[nH]ncc45)c3C)C2)C1` (single isomer, unassigned) [Example 92a], the 50% inhibitory concentration (IC50) was found to be 1400 nM.
Under `C=CC(=O)N1CC2(CC(n3nc(-c4cc(C)nn4CCN(C)C)c(-c4c(Cl)c(C)cc5[nH]ncc45)c3C)C2)C1` (single isomer, unassigned) [Example 92b] stands 43000 nM; under `C=CC(=O)N1CC2(CC(n3nc(-c4ccc5cn[nH]c5c4)c(-c4c(Cl)c(C)cc5[nH]ncc45)c3C)C2)C1` [Example 14], 310 nM; under `C=CC(=O)N1CC2(CC(n3nc(-c4ccc(CN5CCCC5=O)cc4)c(-c4c(Cl)c(C)cc5[nH]ncc45)c3C)C2)C1` [Example 48, 1-(4-(1-(2-acryloyl-2-azaspiro[3.3]heptan-6-yl)-4-(5-chloro-6-methyl-1H-indazol-4-yl)-5-methyl-1H-pyrazol-3-yl)benzyl)pyrrolidin-2-one], 49 nM.
